The assay relates to BDF1 mice, P388 leukemia ip, median survival T/C. Nature of the assay: NCI In Vivo Anticancer Drug Screen. Data for tumor model P388 Leukemia (intraperitoneal) in B6D2F1 (BDF1) mice. As to conditions: endpoint: median survival time, higher = longer survival. The method, boiled down:
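Mice carrying the transplantable tumour receive compound or vehicle. Survival is followed in each arm, and the treated measure is divided by the vehicle measure.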

[1] abbreviates: dose: 50.0 mg/kg/injection, schedule: Q01DX009 (ip), vehicle: saline with Tween-80.
Where [2] appears, read: dose: 100.0 mg/kg/injection, schedule: Q01DX009 (ip), vehicle: saline with Tween-80.
The mark [3] stands for this setting: dose: 200.0 mg/kg/injection, schedule: Q01DX009 (ip), vehicle: saline with Tween-80.
[4] abbreviates: dose: 12.5 mg/kg/injection, schedule: Q01DX009 (ip), vehicle: saline with Tween-80.
The mark [5] stands for this setting: dose: 100.0 mg/kg/injection, schedule: Q04DX003 (ip), vehicle: saline with Tween-80.
Setting [6] is: dose: 200.0 mg/kg/injection, schedule: Q04DX003 (ip), vehicle: saline with Tween-80.
The mark [7] stands for this setting: dose: 400.0 mg/kg/injection, schedule: Q04DX003 (ip), vehicle: saline with Tween-80.
Where [8] appears, read: dose: 25.0 mg/kg/injection, schedule: Q01DX009 (ip), vehicle: saline with Tween-80.
The mark [9] stands for this setting: dose: 100.0 mg/kg/injection, schedule: Q04DX003 (ip), vehicle: Klucel (hydroxypropylcellulose) (HPC).
[10] abbreviates: dose: 400.0 mg/kg/injection, schedule: Q04DX003 (ip), vehicle: Klucel (hydroxypropylcellulose) (HPC).

Inconclusive results and toxic doses are left out.

Here are results for 19 compounds from PubChem BioAssay AID328 (DTP/NCI, 2004).

On to `O=C1C=C(Cl)C(=O)C2=C1CCCC2`, for which the T/C (dose: 0.39 mg/kg/injection, schedule: Q04DX002 (ip), vehicle: saline) was 92 % of control; the T/C (dose: 0.78 mg/kg/injection, schedule: Q04DX002 (ip), vehicle: saline) was 97 % of control; the T/C (dose: 1.56 mg/kg/injection, schedule: Q04DX002 (ip), vehicle: saline with Tween-80) was 96 % of control; the T/C (dose: 1.56 mg/kg/injection, schedule: Q04DX002 (ip), vehicle: saline) is 101 % of control.

Regarding `Cc1cc(NC(=O)Nc2ccc(Cl)cc2)no1`, the T/C under setting [1] is 100 % of control, the T/C under setting [2] is 100 % of control and the T/C under setting [3] is 100 % of control.

On to `Cc1ccc(S(=O)(=O)[O][Pb]([CH3])([CH3])[CH3])cc1`, for which, under “dose: 1.5 mg/kg/injection, schedule: Q01DX009 (ip), vehicle: saline”, the T/C was 103 % of control.

In the case of `CC(C)C(=O)[O][Sn]([c]1ccccc1)([c]1ccccc1)[c]1ccccc1`, under setting [4], the T/C is 123 % of control.

Regarding `CSc1nc(Cl)cc(N2CC2)n1`, the T/C (dose: 0.19 mg/kg/injection, schedule: Q04DX003 (ip), vehicle: saline) is 104 % of control; the T/C (dose: 0.39 mg/kg/injection, schedule: Q01DX009 (ip), vehicle: saline) was 95 % of control; the T/C (dose: 0.39 mg/kg/injection, schedule: Q04DX003 (ip), vehicle: saline) is 109 % of control; the T/C (dose: 0.5 mg/kg/injection, schedule: Q01DX009 (ip), vehicle: saline) is 91 % of control; the T/C (dose: 0.78 mg/kg/injection, schedule: Q01DX009 (ip), vehicle: saline) is 100 % of control; the T/C (dose: 0.78 mg/kg/injection, schedule: Q04DX003 (ip), vehicle: saline) was 100 % of control. The T/C by setting is: (dose: 1.0 mg/kg/injection, schedule: Q01DX009 (ip), vehicle: saline) 116 % of control; (dose: 2.0 mg/kg/injection, schedule: Q01DX009 (ip), vehicle: saline) 95 % of control; (dose: 3.6 mg/kg/injection, schedule: Q04DX003 (ip), vehicle: saline) 100 % of control.

With `O=C(NC(Cc1ccccc1)C(=O)O)OCc1ccccc1` (stereo unspecified), the T/C is, setting by setting: under setting [2], 120 % of control; under setting [5], 92 % of control; under setting [6], 100 % of control; under setting [7], 107 % of control.

With `CC(=O)CC(OC(=O)c1cc([N+](=O)[O-])cc([N+](=O)[O-])c1)(C(F)(F)F)C(F)(F)F`, the T/C was 100 % of control (dose: 6.25 mg/kg/injection, schedule: Q01DX009 (ip), vehicle: saline with Tween-80); 118 % of control under setting [4]; 118 % of control under setting [8].

As to `CC(C)COP(=O)(O)OCC(C)C.[Al]`, the T/C reads like this: under setting [1], 92 % of control; under setting [2], 94 % of control; under setting [3], 94 % of control.

As for `O=C1NC2C(NC(=O)N2Cl)N1Cl` (stereo unspecified), the T/C reads like this: under setting [4], 103 % of control; under setting [8], 100 % of control; under setting [1], 103 % of control.

`C[N+](C)(C)CN1C(=O)c2ccccc2C1=O`: the T/C is, setting by setting: (dose: 50.0 mg/kg/injection, schedule: Q01DX009 (ip), vehicle: saline) 87 % of control; (dose: 100.0 mg/kg/injection, schedule: Q01DX009 (ip), vehicle: saline) 100 % of control.

In the case of `Cc1ccc(CCO)c(C)c1`, the T/C (dose: 50.0 mg/kg/injection, schedule: Q01DX009 (ip), vehicle: Klucel (hydroxypropylcellulose) (HPC)) is 95 % of control; the T/C (dose: 100.0 mg/kg/injection, schedule: Q01DX009 (ip), vehicle: Klucel (hydroxypropylcellulose) (HPC)) was 109 % of control; the T/C under setting [9] was 100 % of control; the T/C (dose: 200.0 mg/kg/injection, schedule: Q01DX009 (ip), vehicle: Klucel (hydroxypropylcellulose) (HPC)) is 90 % of control; the T/C (dose: 200.0 mg/kg/injection, schedule: Q04DX003 (ip), vehicle: Klucel (hydroxypropylcellulose) (HPC)) was 90 % of control; the T/C (dose: 400.0 mg/kg/injection, schedule: Q01DX009 (ip), vehicle: Klucel (hydroxypropylcellulose) (HPC)) was 113 % of control. For the same compound, the T/C under setting [10] was 100 % of control.

Turning to `OC1CSC1`, the T/C was 105 % of control (dose: 50.0 mg/kg/injection, schedule: Q01DX009 (ip), vehicle: saline + alcohol); 100 % of control (dose: 100.0 mg/kg/injection, schedule: Q01DX009 (ip), vehicle: saline + alcohol); 91 % of control (dose: 200.0 mg/kg/injection, schedule: Q01DX009 (ip), vehicle: saline + alcohol); 98 % of control (dose: 400.0 mg/kg/injection, schedule: Q01DX009 (ip), vehicle: saline + alcohol).

For `CC(=O)c1cccc([N+](=O)[O-])c1`, the T/C runs as follows: (dose: 100.0 mg/kg/injection, schedule: Q04DX003 (ip), vehicle: other) 100 % of control; (dose: 200.0 mg/kg/injection, schedule: Q04DX003 (ip), vehicle: other) 104 % of control; (dose: 400.0 mg/kg/injection, schedule: Q04DX003 (ip), vehicle: other) 90 % of control.

`CC1(C)c2ccccc2C(C)(O)c2ccccc21`: the T/C under setting [2] is 100 % of control; the T/C under setting [5] was 100 % of control; the T/C under setting [3] was 100 % of control; the T/C under setting [6] was 96 % of control; the T/C (dose: 400.0 mg/kg/injection, schedule: Q01DX009 (ip), vehicle: saline with Tween-80) was 112 % of control; the T/C under setting [7] was 96 % of control.

`COC(=O)C(Cc1c[nH]c2ccccc12)NC(=O)C(Cc1c[nH]c2ccccc12)NC(=O)OC(C)(C)C` (stereo unspecified): the T/C was 90 % of control (dose: 100.0 mg/kg/injection, schedule: Q01DX001 (ip), vehicle: saline with Tween-80); 86 % of control (dose: 200.0 mg/kg/injection, schedule: Q01DX001 (ip), vehicle: saline with Tween-80); 90 % of control (dose: 400.0 mg/kg/injection, schedule: Q01DX001 (ip), vehicle: saline with Tween-80).

Regarding `Cc1ccc(S(=O)(=O)N/N=C/c2ccccc2)cc1`, the T/C was 93 % of control (dose: 25.0 mg/kg/injection, schedule: Q04DX003 (ip), vehicle: Klucel (hydroxypropylcellulose) (HPC)); 97 % of control (dose: 50.0 mg/kg/injection, schedule: Q04DX003 (ip), vehicle: Klucel (hydroxypropylcellulose) (HPC)); 103 % of control under setting [9]; 106 % of control under setting [10].

For `Cc1ccccc1C[P+](c1ccccc1)(c1ccccc1)c1ccccc1`, the T/C was 100 % of control (dose: 0.39 mg/kg/injection, schedule: Q01DX009 (ip), vehicle: Klucel (hydroxypropylcellulose) (HPC)); 100 % of control (dose: 0.39 mg/kg/injection, schedule: Q04DX003 (ip), vehicle: Klucel (hydroxypropylcellulose) (HPC)); 108 % of control (dose: 0.78 mg/kg/injection, schedule: Q01DX009 (ip), vehicle: Klucel (hydroxypropylcellulose) (HPC)); 122 % of control (dose: 0.78 mg/kg/injection, schedule: Q04DX003 (ip), vehicle: Klucel (hydroxypropylcellulose) (HPC)); 112 % of control (dose: 1.56 mg/kg/injection, schedule: Q01DX009 (ip), vehicle: Klucel (hydroxypropylcellulose) (HPC)); 113 % of control (dose: 1.56 mg/kg/injection, schedule: Q04DX003 (ip), vehicle: Klucel (hydroxypropylcellulose) (HPC)). In addition, the T/C runs as follows: (dose: 3.12 mg/kg/injection, schedule: Q01DX009 (ip), vehicle: saline) 150 % of control; (dose: 3.5 mg/kg/injection, schedule: Q04DX003 (ip), vehicle: Klucel (hydroxypropylcellulose) (HPC)) 104 % of control; (dose: 13.2 mg/kg/injection, schedule: Q04DX003 (ip), vehicle: saline with Tween-80) 113 % of control; (dose: 30.0 mg/kg/injection, schedule: Q04DX003 (ip), vehicle: saline with Tween-80) 104 % of control.

Turning to `NC(N)=Nc1nc2ccccc2s1`, the T/C is 104 % of control (dose: 12.5 mg/kg/injection, schedule: Q04DX003 (ip), vehicle: saline sonified); 100 % of control (dose: 25.0 mg/kg/injection, schedule: Q04DX003 (ip), vehicle: saline sonified); 100 % of control (dose: 50.0 mg/kg/injection, schedule: Q04DX003 (ip), vehicle: saline sonified).

For `C=CCN1C=CC=C/C1=C\C=C(/C#N)C(=O)OCC`, the T/C under setting [1] is 99 % of control, the T/C under setting [2] is 90 % of control and the T/C under setting [3] was 103 % of control.
